Tests used:
DOHH2 (GC-DLBCL) = test: viability by DiOC6/PI staining, GAB1 inhibitors; type: cell-based; conditions: Homo sapiens, DOHH-2, 48 hours, DMSO control 81.84
Description: (§1) In a further experiment, 2.5×10^6/ml of RAMOS (derived from Burkitt's lymphoma) or DOHH2 (derived from diffuse large B cell lymphoma) or GRANTA (derived from […]) or WSU-NHL (derived from follicular lymphoma) cells was treated with treated with two different GAB inhibitors (inhGAB1-001 and inhGAB1-004; provided by MD Anderson, USA (Lu Chen et al., PLoS Comput Biol. 2015; 11(1): e1004021.) at final concentration 25 μM, or with an equal volume of vehicle (DMSO) for 48 hours. After that, cells were harvested and stained for viability using DiOC6/PI (3,3′-dihexyloxacarbocyanine iodide together with propidium iodide; catalog numbers: D273 and P3566; both were obtained from Thermo Fisher Scientific). Cells were stained and analyzed according to manufacturer protocol. The analysis was performed using BD FACS Verse flow cytometer (BD Biosciences).

[1] = test system: WSU-NHL (Follicular lymphoma); test: viability by DiOC6/PI staining, GAB1 inhibitors; type: cell-based; conditions: Homo sapiens, 48 hours, DMSO control 87.34
Description: as §1

[2] = test system: RAMOS (Burkitt's lymphoma); test: viability by DiOC6/PI staining, GAB1 inhibitors; type: cell-based; conditions: Homo sapiens, 48 hours, DMSO control 95.01
Description: as §1

[3] = test system: GRANTA (Acute lymphoblastic leukemia); test: viability by DiOC6/PI staining, GAB1 inhibitors; type: cell-based; conditions: 48 hours, DMSO control 87.24
Description: as §1

primary CLL cells [4] = test: Ca2+ flux (Fluo-4AM, flow cytometry) after SDF1 stimulation; type: cell-based, human; conditions: 25 μM inhibitor 6 hours, SDF1 100 μg/ml
Description: Primary CLL cells (5×10^6/ml) were treated with 25 μM GAB1-001 inhibitor (inhGAB1-001) or GAB1-004 inhibitor (inhGAB1-004) for 6 hours (culture conditions are described in the Material and Method section). These inhibitors were obtained from MD Anderson, USA (Lu Chen et al., PLoS Comput Biol. 2015; 11(1): e1004021.). Control cells were treated with an equal volume of DMSO also for 6 hours. After that were these cells incubated in Hanks Balanced Salt Solution (HBSS, catalog number: H6648, Sigma Aldrich) containing […] Fluo-4AM (catalog number: F14201, Thermo Fisher Scientific) for 30 minutes at 37° C. in the dark. The cells were subsequently prepared for analysis according to instructions provided by the manufacturer of Fluo-4AM. The malignant B cells were subsequently analyzed by flow cytometry (BD FACS Verse, BD Biosciences). Samples were acquired for 60 seconds without stimulation. After that the cells were immediately stimulated by SDF1 100 μg/ml (catalog number: 300-28A, Peprotech). […] To calculate the response to SDF1, we established a baseline fluorescence threshold for each sample (by acquiring samples for 60 seconds without any stimulus). We then calculated the peak Fluo-4AM signal and the percentage of cells with fluorescence intensity above baseline Fluo-4AM signal following stimulation addition.

primary CLL cells [5] = test: viability by DiOC6/PI staining, flow cytometry; type: cell-based; conditions: Homo sapiens, CLL cell, 48 hours, DMSO control 55.67
Description: To see the effect of GAB1 inhibitors on malignant B cell viability we treated 5×10^6/ml of primary CLL cells with different doses (10, 25 or 50 μM) of GAB1-001 inhibitor (inhGAB1-001) or GAB1-004 inhibitor (inhGAB1-004) for 48 hours. These inhibitors were obtained from MD Anderson, USA (Lu Chen et al., PLoS Comput Biol. 2015; 11(1): e1004021.). Control cells were treated with an equal volume of DMSO also for 48 hours (culture conditions are described in the Material and Method section). After that, the cells were stained with DiOC6/PI (3,3′-dihexyloxacarbocyanine iodide together with propidium iodide; catalog numbers: D273 and P3566; both were obtained from Thermo Fisher Scientific). Cells were stained and analyzed according to manufacturer protocol. The analysis was performed using BD FACS Verse flow cytometer (BD Biosciences).

[6] = test system: ML2 (Acute myeloid leukemia); test: viability by DiOC6/PI staining, ibrutinib and/or GAB1 inhibitors; type: cell-based; conditions: ibrutinib 1 μM six days, then GAB1 inhibitors 25 μM 48 hours, DMSO control 76.92
Description: (§2) Cells were cultivated for six days (see Material and Method section) and ibrutinib or DMSO were supplemented each second day. […] The analysis was performed using BD FACS Verse flow cytometer (BD Biosciences).

[7] = test system: OciLy5 (Small lymphocytic leukemia); test: as above; type: cell-based; conditions: ibrutinib 1 μM six days, then GAB1 inhibitors 25 μM 48 hours, DMSO control 81.47
Description: as §2

[8] = test system: JEKO (Mantle cell lymphoma); test: as above; type: cell-based; conditions: ibrutinib 1 μM six days, then GAB1 inhibitors 25 μM 48 hours, DMSO control 76.64
Description: as §2

MEC1 cells = test: as above; type: cell-based; conditions: ibrutinib 1 μM six days, then GAB1 inhibitors 25 μM 48 hours, DMSO control 85.20
Description: Cells were cultivated for six days (see Material and Method section) and ibrutinib or DMSO were supplemented each second day. […] After that were cells harvested and stained for viability using DiOC6/PI (3,3′-dihexyloxacarbocyanine iodide together with propidium iodide (catalog numbers: D273 and P3566; both were obtained from Thermo Fisher Scientific). Cells were stained and analyzed according to manufacturer protocol. The analysis was performed using BD FACS Verse flow cytometer (BD Biosciences).

primary CLL cells [9] = test: competitive migration assay (transwell) after inhibitor treatment; type: cell-based, human; conditions: GAB1 inhibitors 50 μM, ibrutinib 1 μM, 12 hours, migration towards conditioned media (50%) 6 hours, control set to 1
Description: HS5 cells (3.5×10^6) were seeded in T75 cultivation flask (TPP) in 12 ml of Dulbecco's Modified Eagle's Medium media (DMEM, catalog number: D6429, Sigma-Aldrich). The next day was original media discarded, the cells attached to the bottom of the flask were washed once with 10 ml of PBS (catalog number: 5493; Sigma Aldrich). Subsequently, the 25 ml of RPMI-1640 (catalog number: R8758, Sigma-Aldrich) media was added to the attached HS5 cells. After 48 hours was this conditioned media collected, purified from cell-debris by 10 minutes centrifugation at 2000 RCF and subsequently diluted with fresh RPMI-1640 media (catalog number: R8758, Sigma-Aldrich) containing 10% FBS (catalog number: FB-1350; Biosera) and 5% penicillin/streptomycin (catalog number: P4333; Sigma Aldrich) to final concentration 50% conditioned media. This media was immediately used for experiments.
To compare the migration, the stained cells (control cells plus one treated variant) were mixed in ratio 1:1 and loaded in transwell inserts (24 well insert, 8 μm pore size; Falcon, Corning) according to manufacturer protocol. […] The ratio of migrated inhibitor-treated cells was calculated by dividing of the percentage of migrated inhibitor-treated cells by percentage of migrated control cells.

[10] = test system: phospho-GAB1 Y307 in primary CLL cells; test: immunoblot of GAB1 phosphorylation after stimulation with SDF1 or conditioned media, with or without plerixafor; type: cell-based, human
Description: Samples were sonicated 2×10 seconds, amplitude 60% (type: UP100H; Hielscher). […] Electrophoresis was conducted using Biorad Miniprotean system (Biorad) according to manufacturer protocol (voltage: 60-110 V, electrophoresis buffer: 25 mM TRIS, 250 mM glycine, […], pH 8.2; all reagents were obtained from Sigma Aldrich; catalog numbers: L3771, T6066, H1758, G8898). Proteins were subsequently transferred to the PVDF membrane (0.45 μm pore size, Millipore) using Biorad Miniprotean system (Biorad) according to manufacturer protocol (blot buffer: 20% methanol, 192 mM glycine, 25 mM TRIS; all reagents were obtained from Sigma Aldrich; catalog numbers: 34860, T6066, H1758, G8898).
HS5 cells (3.5×10^6) were seeded in T75 cultivation flask (TPP) in 12 ml of Dulbecco's Modified Eagle's Medium media (DMEM, catalog number: D6429, Sigma-Aldrich). The next day was original media discarded, the cells attached to the bottom of the flask were washed once with 10 ml of PBS (catalog number: 5493; Sigma Aldrich). Subsequently, the 25 ml of RPMI-1640 (catalog number: R8758, Sigma-Aldrich) media was added to the attached HS5 cells. […] This media was immediately used for experiments.
Primary CLL cells (5×10^6/ml) were cultured as described in Material and Method section. […]

Row | Compound | viability at 25 µM (DOHH2 (GC-DLBCL)) | viability at 25 µM [1] | viability at 25 µM [2] | viability at 25 µM [3] | Ca2+ flux after treatment with SDF1 (FIG. 2G) (primary CLL cells [4]) | viability at 10 µM (primary CLL cells [5]) | viability at 25 µM (primary CLL cells [5]) | viability at 50 µM (primary CLL cells [5]) | % of viability [6] | % of viability [7] | % of viability [8] | % of viability (MEC1 cells) | Ratio of migrated cells (primary CLL cells [9]) | GAB1 phosphorylation on stimulation (FIG. 1A) ([10]; SDF1 100 ng/ml, 5 minutes) | GAB1 phosphorylation on conditioned media in the presence of plerixafor (FIG. 1A) ([10]; plerixafor 5 μg/ml 8 hours, 50% conditioned media 5 minutes)
1 | O=c1[nH]nc(SCc2csc(-c3ccccc3)n2)n1Cc1ccco1 [inhGAB1-004] | 72.3% | 70.2% | 74.6% | 74.1% | decreases the Ca^2+ flux | 44.7% | 42.6% | 37.4% | 28.07% | 62.46% | 49.20% | 74.52% | 0.75 | – | –
2 | SDF1: Stromal cell-derived factor 1, chemokine ligand used as stimulus | – | – | – | – | – | – | – | – | – | – | – | – | – | phosphorylation and thus activation of GAB1 protein | –
3 | C=CC(=O)N1CCC[C@@H](n2nc(-c3ccc(Oc4ccccc4)cc3)c3c(N)ncnc32)C1 [ibrutinib] | – | – | – | – | – | – | – | – | 68.93% | 80.33% | 60.14% | 81.66% | – | – | –
4 | c1cc(CN2CCCNCCNCCCNCC2)ccc1CN1CCCNCCNCCCNCC1 [plerixafor] | – | – | – | – | – | – | – | – | – | – | – | – | – | – | also led to GAB1 phosphorylation
5 | O=S(=O)(NCc1csc2ccc(Cl)cc12)c1cc(S(=O)(=O)c2ccccc2)cs1 [inhGAB1-001] | 51.9% | 29.4% | 50.3% | 4.49% | decreases the Ca^2+ flux | 52.8% | 50.3% | 31% | 6.86% | 53.12% | 2.88% | 67.00% | 0.79 | – | –

Source: patent US11648255B2, “Inhibitors for treatment of hematological malignancies” (Masarykova Univerzita, priority 2020, dated 2023)
